According to ChEMBL document CHEMBL3085704, “Methyl-thiazoles: a novel mode of inhibition with the potential to develop novel inhibitors targeting InhA in Mycobacterium tuberculosis” (J Med Chem, 2013):

Tests used:
Format in all cases: functional
[1] = test system: Mycobacterium tuberculosis; assay: Antitubercular activity against Mycobacterium tuberculosis H37Rv expressing inhA G96V mutant assessed as parasite growth inhibition after 7 days by Alamar Blue assay
[2] = test system: Mycobacterium tuberculosis; assay: Antitubercular activity against Mycobacterium tuberculosis H37Rv expressing inhA M103L mutant assessed as parasite growth inhibition after 7 days by Alamar Blue assay
[3] = test system: Mycobacterium tuberculosis; assay: Antitubercular activity against Mycobacterium tuberculosis H37Rv expressing inhA M103I mutant assessed as parasite growth inhibition after 7 days by Alamar Blue assay

| Structure (SMILES) | MIC [1] | MIC [2] | MIC [3] |
| --- | --- | --- | --- |
| Cc1csc([C@](C)(O)c2nnc(Nc3ccn(Cc4c(F)cccc4F)n3)s2)n1 | >25 µM | >25 µM | >25 µM |
| Cc1csc(C(C)(O)c2nnc(Nc3ncn(Cc4c(F)cccc4F)n3)s2)n1 (racemic) | >25 µM | >25 µM | >25 µM |
| NNC(=O)c1ccncc1 [ISONIAZID] | 0.06 µg/mL | 0.03 µg/mL | 0.06 µg/mL |
| COc1c(N2C[C@@H]3CCCN[C@@H]3C2)c(F)cc2c(=O)c(C(=O)O)cn(C3CC3)c12 [MOXIFLOXACIN] | 0.12 µg/mL | 0.12 µg/mL | 0.12 µg/mL |
| CO[C@H]1/C=C/O[C@@]2(C)Oc3c(C)c(O)c4c(O)c(c(/C=N/N5CCN(C)CC5)c(O)c4c3C2=O)NC(=O)/C(C)=C\C=C\[C@H](C)[C@H](O)[C@@H](C)[C@@H](O)[C@@H](C)[C@H](OC(C)=O)[C@@H]1C [RIFAMPIN] | 0.01 µg/mL | 0.007 µg/mL | 0.007 µg/mL |
